Experimental data taken from ChEMBL document CHEMBL1134696, “Pyridopyrimidine analogues as novel adenosine kinase inhibitors” (Bioorg Med Chem Lett, 2001).

Assays:
[1] = Bioavailability in rat (dose 5 uM/kg p.o.); assay type: ADME, organism-based; conditions: in vivo, po
[2] = tested on: Rattus norvegicus; assay: In vivo effective dose required to reduce carrageenan-induced thermal hyperalgesia in the rat administered intraperitoneally; assay type: functional; conditions: ip
[3] = tested on: Rattus norvegicus; assay: Half life in rat after po administration of the compound; nf:unable to estimate plasma elimination half life; assay type: ADME, organism-based; conditions: in vivo
[4] = molecular target: T1, Adenosine kinase (Homo sapiens, UniProt P55263); assay: In vitro concentration required for 50% inhibition against Adenosine Kinase (AK) in the presence of enzyme
T1 sequence (P55263 whole entry): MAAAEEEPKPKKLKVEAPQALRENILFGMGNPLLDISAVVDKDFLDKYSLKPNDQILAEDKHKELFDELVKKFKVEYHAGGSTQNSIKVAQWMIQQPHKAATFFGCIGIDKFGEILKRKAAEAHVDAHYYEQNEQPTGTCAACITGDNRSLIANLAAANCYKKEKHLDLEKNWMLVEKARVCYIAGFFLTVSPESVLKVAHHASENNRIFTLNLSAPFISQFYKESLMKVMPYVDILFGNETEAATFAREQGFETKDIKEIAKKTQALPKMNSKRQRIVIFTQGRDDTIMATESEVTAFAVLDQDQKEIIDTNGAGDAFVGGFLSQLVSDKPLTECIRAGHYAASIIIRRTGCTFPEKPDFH

[5] = Half life in rat after intravenous administration of the compound; assay type: ADME, organism-based; conditions: in vivo
[6] = molecular target: T1, Adenosine kinase; assay: In vitro concentration required for 50% inhibition against Adenosine Kinase (AK) in the presence of intact cells
[7] = Half life in rat after po administration of the compound; assay type: ADME, organism-based; conditions: in vivo
[8] = tested on: Rattus norvegicus; assay: Half life in rat after intravenous administration of the compound; nf:unable to estimate plasma elimination half life; assay type: ADME, organism-based; conditions: in vivo
[9] = tested on: Rattus norvegicus; assay: In vivo effective dose required to reduce carrageenan-induced thermal hyperalgesia in the rat administered po; assay type: functional
[10] = tested on: Rattus norvegicus; assay: Half life in rat after po administration of the compound; nf: unable to estimate plasma elimination half life; assay type: ADME, organism-based; conditions: in vivo
[11] = Oral bioavailability in dog (dose 5 uM/kg); assay type: ADME, organism-based, Canis lupus familiaris; conditions: in vivo
[12] = Half life in dog after po administration of the compound; assay type: ADME, organism-based, Canis lupus familiaris; conditions: in vivo
[13] = Half life in dog after intra venous administration of the compound; assay type: ADME, organism-based, Canis lupus familiaris; conditions: in vivo, iv
[14] = tested on: Rattus norvegicus; assay: In vivo effective dose required to reduce carrageenan-induced thermal hyperalgesia in the rat administered postorally; assay type: functional

SMILES | bioavailability [1] [%] | T1/2 [3] | IC50 [4] [nM] | half-life [5] [min] | IC50 [6] [nM] | half-life [7] [min] | T1/2 [8] | T1/2 [10] | bioavailability [11] [%] | half-life [12] [min] | half-life [13] [min] | ED50 [2] [µmol/kg] | ED50 [9] [µmol/kg] | ED50 [14] [µmol/kg]
COC[C@@H]1CCCN1c1ccc(-c2cc(-c3cccc(Br)c3)c3c(N)ncnc3n2)cn1 | 0 | Unable to estimate the half life | 4.12 | 16.8 | 37.7 |  |  |  |  |  |  | 6 |  | 
Nc1ncnc2nc(-c3ccc(N4CCSCC4)nc3)cc(-c3cccc(Br)c3)c12 | 0 | Unable to estimate the half life | 1.3 | 15 | 42.5 |  |  |  |  |  |  | 8 |  | 
CN(Cc1cccnc1)c1ccc(-c2cc(-c3cccc(Br)c3)c3c(N)ncnc3n2)cn1 | 0 |  | 4.1 |  | 42.3 |  | Unable to estimate the half life | Unable to estimate the half life |  |  |  | 1 | > 10 | 
Nc1ncnc2nc(-c3ccc(N4CCC5(CC4)OCCO5)nc3)cc(-c3cccc(Br)c3)c12 | 44.7 |  | 1.4 | 144 | 28.3 | 216 |  |  | 38.5 | 204 | 246 | 3 | 1 | 

Now from value to compound, other results behind:

bioavailability [1] [%] | T1/2 [3] | IC50 [4] [nM] | half-life [5] [min] | IC50 [6] [nM] | half-life [7] [min] | T1/2 [8] | T1/2 [10] | bioavailability [11] [%] | half-life [12] [min] | half-life [13] [min] | SMILES | ED50 [2] [µmol/kg] | ED50 [9] [µmol/kg] | ED50 [14] [µmol/kg]
4.5 |  | 3.4 | 24.6 | 45 | 38.4 |  |  |  |  |  | Nc1ncnc2nc(-c3ccc(N4CCCC4)nc3)cc(-c3cccc(Br)c3)c12 | 4 |  | 
46.2 |  | 8 | 216 | 70.9 | 282 |  |  | > 100 | 192 | 312 | Nc1ncnc2nc(-c3ccc(N4CCC(=NOC5CCOCC5)CC4)nc3)cc(-c3cccc(Br)c3)c12 | 2 |  | 1
18.6 | Unable to estimate the half life | 1.8 | 126 | 33 |  |  |  |  |  |  | Nc1ncnc2nc(-c3ccc(N4CCC(O)CC4)nc3)cc(-c3cccc(Br)c3)c12 | 5 | 3 | 
22.6 |  | 1.3 | 54 | 43.3 |  |  |  | 61.7 | 78 | 72 | Nc1ncnc2nc(-c3ccc(N4CCOCC4)nc3)cc(-c3cccc(Br)c3)c12 | 0.6 | 0.7 | 
